Values of other authors, collected in patent US8815303B2, “Multifunctional compositions having combined insecticidal, miticidal and fungicidal activity” (priority 2004, dated 2014).
Read-outs that look alike come from different tables or passages of the source.

Columns and labels:
[1] = test system: powdery mildew and/or blackspot; conditions: for management of powdery mildew and/or blackspot: weekly sprays of 0.5% (w/w) aqueous solution
rose powdery mildew = conditions: intact plants, after one adaxial foliar spray application
[2] = 0.5% concentration (the more effective dose)

SMILES | powdery mildew severity ([1]; 0.25% concentration) | powdery mildew severity [1, 2] | management of powdery mildew and/or blackspot [1] | host epidermal layers (rose powdery mildew) | superficial pathogen structures (rose powdery mildew)
O=C([O-])O.[K+] [potassium bicarbonate] | significantly reduce | significantly reduce | significantly managed | recover completely from infection | eradicated
O=C([O-])O.[Na+] [sodium bicarbonate] | significantly reduce | significantly reduce | significantly managed |  | 
